Source: the supplement of paper PMC11061612

How the values were obtained:
Paclitaxel = compound: CC(=O)O[C@H]1C(=O)[C@@]2(C)[C@H]([C@H](OC(=O)c3ccccc3)[C@]3(O)C[C@H](OC(=O)[C@H](O)[C@@H](NC(=O)c4ccccc4)c4ccccc4)C(C)=C1C3(C)C)[C@]1(OC(C)=O)CO[C@@H]1C[C@@H]2O [Paclitaxel]; conditions: max 3 µM
How it was run: (§1)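 Following 24 hours at 37°C and 5% CO2, cancer cell lines in 1536-well plates with 7.5 μl DMEM/F12 or RPMI and 10% FBS were dosed for 72 hours, final DMSO typically being 0.2%. CellTiter-Glo 2.0 luminescence, scaled between blank-well and DMSO-well means, gave the viability readout. Dose responses were fitted to a two-parameter logistic curve with a non-linear mixed effects model, and the single-agent IC50 was derived from this fit.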

AZD5153 = compound: COc1nnc2ccc(N3CCC(c4ccc(OCCN5CCN(C)C(=O)[C@H]5C)cc4)CC3)nn12 [AZD5153]; conditions: max 1 µM
How it was run: as §1

AZD5991 = compound: Cc1c2c(nn1C)CSCc1cc(n(C)n1)CSc1cc(c3ccccc3c1)OCCCc1c(C(=O)O)n(C)c3c-2c(Cl)ccc13 [AZD5991]; conditions: max 1 µM
How it was run: as §1

Alisertib = compound: COc1cc(Nc2ncc3c(n2)-c2ccc(Cl)cc2C(c2c(F)cccc2OC)=NC3)ccc1C(=O)O [Alisertib]; conditions: max 10 µM
How it was run: as §1

Savolitinib = compound: C[C@@H](c1ccc2nccn2c1)n1nnc2ncc(-c3cnn(C)c3)nc21 [Savolitinib]; conditions: max 1 µM
How it was run: as §1

Doxorubicin = compound: COc1cccc2c1C(=O)c1c(O)c3c(c(O)c1C2=O)C[C@@](O)(C(=O)CO)C[C@@H]3O[C@H]1C[C@H](N)[C@H](O)[C@H](C)O1 [Doxorubicin]; conditions: max 1 µM
How it was run: as §1

SG3199 = compound: CC1=CN2[C@@H](C1)C=NC3=CC(=C(C=C3C2=O)OC)OCCCCCOC4=C(C=C5C(=C4)N=C[C@@H]6CC(=CN6C5=O)C)OC [SG3199]; conditions: max 0.001 µM
How it was run: as §1

Taselisib = compound: Cc1nc(-c2cn3c(n2)-c2ccc(-c4cnn(C(C)(C)C(N)=O)c4)cc2OCC3)n(C(C)C)n1 [Taselisib]; conditions: max 10 µM
How it was run: as §1

Crizotinib = compound: C[C@@H](Oc1cc(-c2cnn(C3CCNCC3)c2)cnc1N)c1c(Cl)ccc(F)c1Cl [Crizotinib]; conditions: max 10 µM
How it was run: as §1

AZD7648 = compound: Cc1cc2ncnn2cc1Nc1ncc2c(n1)n(C1CCOCC1)c(=O)n2C [AZD7648]; conditions: max 10 µM
How it was run: as §1

5-Fluorouracil = compound: O=c1[nH]cc(F)c(=O)[nH]1 [5-Fluorouracil]; conditions: max 20 µM
How it was run: as §1

Trametinib = compound: CC(=O)Nc1cccc(-n2c(=O)n(C3CC3)c(=O)c3c(Nc4ccc(I)cc4F)n(C)c(=O)c(C)c32)c1 [Trametinib]; conditions: max 1 µM
How it was run: as §1

Dasatinib = compound: CC1=C(C(=CC=C1)Cl)NC(=O)C2=CN=C(S2)NC3=CC(=NC(=N3)C)N4CCN(CC4)CCO [Dasatinib]; conditions: max 2 µM
How it was run: as §1

Lapatinib = compound: CS(=O)(=O)CCNCc1ccc(-c2ccc3ncnc(Nc4ccc(OCc5cccc(F)c5)c(Cl)c4)c3c2)o1 [Lapatinib]; conditions: max 10 µM
How it was run: as §1

Olaparib = compound: O=C(c1cc(Cc2n[nH]c(=O)c3ccccc23)ccc1F)N1CCN(C(=O)C2CC2)CC1 [Olaparib]; conditions: max 10 µM
How it was run: as §1

AZD0156 = compound: CN(C)CCCOc1ccc(-c2ccc3ncc4c(c3c2)n(C2CCOCC2)c(=O)n4C)cn1 [AZD0156]; conditions: max 3 µM
How it was run: as §1

Palbociclib = compound: CC(=O)c1c(C)c2cnc(Nc3ccc(N4CCNCC4)cn3)nc2n(C2CCCC2)c1=O [Palbociclib]; conditions: max 10 µM
How it was run: as §1

AZD2811 = compound: CCN(CCO)CCCOc1ccc2c(Nc3cc(CC(=O)Nc4cccc(F)c4)[nH]n3)ncnc2c1 [AZD2811]; conditions: max 1 µM
How it was run: as §1

[1] = compound: O=C(Nc1ccc2[nH]nc(-c3ccncc3)c2c1)[C@@H]1CCN(CC(=O)N2CCN(c3ccc(-c4ncccn4)cc3)CC2)C1; conditions: max 5 µM
How it was run: as §1

Gefitinib = compound: COc1cc2ncnc(Nc3ccc(F)c(Cl)c3)c2cc1OCCCN1CCOCC1 [Gefitinib]; conditions: max 10 µM
How it was run: as §1

Prexasertib = compound: COc1cccc(OCCCN)c1-c1cc(Nc2cnc(C#N)cn2)n[nH]1 [Prexasertib]; conditions: max 1 µM
How it was run: as §1

SN-38 = compound: CCc1c2c(nc3ccc(O)cc13)-c1cc3c(c(=O)n1C2)COC(=O)[C@]3(O)CC [SN-38]; conditions: max 0.3 µM
How it was run: as §1

Selumetinib = compound: Cn1cnc2c(F)c(Nc3ccc(Br)cc3Cl)c(C(=O)NOCCO)cc21 [Selumetinib]; conditions: max 10 µM
How it was run: as §1

SRA737 = compound: N#Cc1cnc(Nc2cc(NC[C@H]3CNCCO3)c(C(F)(F)F)cn2)cn1 [SRA737]; conditions: max 10 µM
How it was run: as §1

AZD8186 = compound: C[C@@H](Nc1cc(F)cc(F)c1)c1cc(C(=O)N(C)C)cc2c(=O)cc(N3CCOCC3)oc12 [AZD8186]; conditions: max 10 µM
How it was run: as §1

MK-2206 = compound: NC1(c2ccc(-c3nc4ccn5c(=O)[nH]nc5c4cc3-c3ccccc3)cc2)CCC1 [MK-2206]; conditions: max 10 µM
How it was run: as §1

AZD1390 = compound: CC(C)n1c(=O)n(C)c2cnc3cc(F)c(-c4ccc(OCCCN5CCCCC5)nc4)cc3c21 [AZD1390]; conditions: max 0.3 µM
How it was run: as §1

AZD1775 = compound: C=CCn1c(=O)c2cnc(Nc3ccc(N4CCN(C)CC4)cc3)nc2n1-c1cccc(C(C)(C)O)n1 [AZD1775]; conditions: max 3 µM
How it was run: as §1

Etoposide = compound: COc1cc([C@@H]2c3cc4c(cc3[C@@H](O[C@@H]3O[C@@H]5CO[C@@H](C)O[C@H]5[C@H](O)[C@H]3O)[C@H]3COC(=O)[C@H]23)OCO4)cc(OC)c1O [Etoposide]; conditions: max 10 µM
How it was run: as §1

AZD6738 = compound: C[C@@H]1COCCN1C2=NC(=NC(=C2)C3(CC3)[S@](=N)(=O)C)C4=C5C=CNC5=NC=C4 [AZD6738]; conditions: max 10 µM
How it was run: as §1

Gemcitabine = compound: Nc1ccn([C@@H]2O[C@H](CO)[C@@H](O)C2(F)F)c(=O)n1 [Gemcitabine]; conditions: max 0.3 µM
How it was run: as §1

Venetoclax = compound: CC1(C)CCC(CN2CCN(c3ccc(C(=O)NS(=O)(=O)c4ccc(NCC5CCOCC5)c([N+](=O)[O-])c4)c(Oc4cnc5[nH]ccc5c4)c3)CC2)=C(c2ccc(Cl)cc2)C1 [Venetoclax]; conditions: max 1 µM
How it was run: as §1

Carboplatin = compound: C1CC(C1)(C(=O)[O-])C(=O)[O-].N.N.[Pt+2] [Carboplatin]; conditions: max 10 µM
How it was run: as §1

AZD5363 = compound: C1CN(CCC1(C(=O)N[C@@H](CCO)C2=CC=C(C=C2)Cl)N)C3=NC=NC4=C3C=CN4 [AZD5363]; conditions: max 10 µM
How it was run: as §1

AZD4320 = compound: CN(CC[C@H](CSC1=CC=CC=C1)NC2=C(C=C(C=C2)S(=O)(=O)NC(=O)C3=CC=C(C=C3)N4CCC(CC4)[C@H](C5=CC=CC=C5C6=CC=C(C=C6)Cl)O)S(=O)(=O)C(F)(F)F)CCO [AZD4320]; conditions: max 1 µM
How it was run: as §1

Cell Line	IC50, cell viability 72 h (Paclitaxel) [nM]	IC50, cell viability 72 h (AZD5153) [nM]	IC50, cell viability 72 h (AZD5991) [nM]	IC50, cell viability 72 h (Alisertib) [nM]	IC50, cell viability 72 h (Savolitinib) [nM]	IC50, cell viability 72 h (Doxorubicin) [nM]	IC50, cell viability 72 h (SG3199) [nM]	IC50, cell viability 72 h (Taselisib) [nM]	IC50, cell viability 72 h (Crizotinib) [nM]	IC50, cell viability 72 h (AZD7648) [nM]	IC50, cell viability 72 h (5-Fluorouracil) [nM]	IC50, cell viability 72 h (Trametinib) [nM]	IC50, cell viability 72 h (Dasatinib) [nM]	IC50, cell viability 72 h (Lapatinib) [nM]	IC50, cell viability 72 h (Olaparib) [nM]	IC50, cell viability 72 h (AZD0156) [nM]	IC50, cell viability 72 h (Palbociclib) [nM]	IC50, cell viability 72 h (AZD2811) [nM]	IC50, cell viability 72 h [1] [nM]	IC50, cell viability 72 h (Gefitinib) [nM]	IC50, cell viability 72 h (Prexasertib) [nM]	IC50, cell viability 72 h (SN-38) [nM]	IC50, cell viability 72 h (Selumetinib) [nM]	IC50, cell viability 72 h (SRA737) [nM]	IC50, cell viability 72 h (AZD8186) [nM]	IC50, cell viability 72 h (MK-2206) [nM]	IC50, cell viability 72 h (AZD1390) [nM]	IC50, cell viability 72 h (AZD1775) [nM]	IC50, cell viability 72 h (Etoposide) [nM]	IC50, cell viability 72 h (AZD6738) [nM]	IC50, cell viability 72 h (Gemcitabine) [nM]	IC50, cell viability 72 h (Venetoclax) [nM]	IC50, cell viability 72 h (Carboplatin) [nM]	IC50, cell viability 72 h (AZD5363) [nM]	IC50, cell viability 72 h (AZD4320) [nM]
SBC-3 (Small Cell Lung Carcinoma)	3.8	64.6	> 1000	421	> 1000	71.7	> 1	2580	3450	> 10000	4540	> 1000	> 2000	> 10000	> 10000	> 3000	4820	636	> 5000	> 10000	136	2.25	> 10000	> 10000	> 10000	> 10000	> 300	822	313	5850	14.7	> 1000	> 10000	> 10000	> 1000
SK-MEL-24 (Melanoma)	738	> 1000	> 1000	> 10000	> 1000	701	> 1	5000	> 10000	> 10000	> 20000	46.3	> 2000	> 10000	> 10000	> 3000	> 10000	> 1000	3270	> 10000	575	23.9	2770	> 10000	> 10000	> 10000	> 300	> 3000	> 10000	> 10000	193	> 1000	> 10000	> 10000	> 1000
